Values of other authors in PubChem BioAssay AID1259409 (Chemical Carcinogenesis Research Information System (CCRIS), 2018).

Tested on: rodent chemically induced tumor inhibition, incidence and multiplicity
Experiment: CCRIS tumor inhibitor studies
Settings: Dose [Inhibitor]: 0

COc1cc(/C=C/C(=O)CC(=O)/C=C/c2ccc(O)c(OC)c2)ccc1O
tumour outcome (control, treated, inhibition, significance) (Carcinogen: AZOXYMETHANE, 25843-45-2, 4% COMMERCIAL GRADE CURCUMIN IN DIET FOR 35 WK BEGINNING 2 WK PRIOR TO CARCINOGEN TREATMENT (STUDY DURATION: 35 WK), Route [Inhibitor]: ORAL, Species: MOUSE, Strain/Sex: CF-1/FEMALE, Target Tissue: Type of Lesion: COLON: ADENOCARCINOMA, Dose [Carcinogen]: 10 MG/KG BW IN 100 µL NORMAL SALINE 1/WK FOR 6 WK, Promoter: NONE USED): 40%, 15%, 63%, not significant
tumour outcome (control, treated, inhibition, significance) (Carcinogen: AZOXYMETHANE, 25843-45-2, 4% COMMERCIAL GRADE CURCUMIN IN DIET FOR 35 WK BEGINNING 2 WK PRIOR TO CARCINOGEN TREATMENT (STUDY DURATION: 35 WK), Route [Inhibitor]: ORAL, Species: MOUSE, Strain/Sex: CF-1/FEMALE, Target Tissue: Type of Lesion: COLON: ADENOMA, Dose [Carcinogen]: 10 MG/KG BW IN 100 µL NORMAL SALINE 1/WK FOR 6 WK, Promoter: NONE USED): 93%, 56%, 40%, not significant
tumour outcome (control, treated, inhibition, significance) (Carcinogen: AZOXYMETHANE, 25843-45-2, 200O PPM IN DIET FOR 56 WK BEGINNING 2 WK PRIOR TO CARCINOGEN TREATMENT (STUDY DURATION: 56 WK), Route [Inhibitor]: ORAL, Species: RAT, Strain/Sex: F344/MALE, Target Tissue: Type of Lesion: COLON: ADENOCARCINOMA, Dose [Carcinogen]: 15 MG/KG BW 1/WK FOR 2 WK, Promoter: NONE USED): 81%, 47%, 42%, p<0.004
tumour outcome (control, treated, inhibition, significance) (Carcinogen: BENZO[A]PYRENE, 50-32-8, 0.5% COMMERCIAL GRADE CURCUMIN IN DIET FOR 7 WK BEGINNING 2 WK PRIOR TO CARCINOGEN TREATMENT (STUDY DURATION: 30 WK), Route [Inhibitor]: ORAL, Species: MOUSE, Strain/Sex: STRAIN-A/FEMALE, Target Tissue: Type of Lesion: FORESTOMACH: PAPILLOMA, Dose [Carcinogen]: 1.5 MG IN 100 µL CORN OIL 1/WK FOR 4 WK, Promoter: NONE USED): 97%, 87%, 10%, not significant
tumour outcome (control, treated, inhibition, significance) (Carcinogen: BENZO[A]PYRENE, 50-32-8, 0.5% COMMERCIAL GRADE CURCUMIN IN DIET FOR 7 WK BEGINNING 2 WK PRIOR TO CARCINOGEN TREATMENT (STUDY DURATION: 30 WK), Route [Inhibitor]: ORAL, Species: MOUSE, Strain/Sex: STRAIN-A/FEMALE, Target Tissue: Type of Lesion: FORESTOMACH: SQUAMOUS CELL CARCINOMA, Dose [Carcinogen]: 1.5 MG IN 100 µL CORN OIL 1/WK FOR 4 WK, Promoter: NONE USED): 41%, 23%, 44%, not significant
tumour outcome (control, treated, inhibition, significance) (Carcinogen: BENZO[A]PYRENE, 50-32-8, 0.5% COMMERCIAL GRADE CURCUMIN IN DIET FOR 23 WK BEGINNING 1 WK POST CARCINOGEN TREATMENT (STUDY DURATION: 30 WK), Route [Inhibitor]: ORAL, Species: MOUSE, Strain/Sex: STRAIN-A/FEMALE, Target Tissue: Type of Lesion: FORESTOMACH: PAPILLOMA, Dose [Carcinogen]: 1.5 MG IN 100 µL CORN OIL 1/WK FOR 4 WK, Promoter: NONE USED): 97%, 89%, 8%, not significant
tumour outcome (control, treated, inhibition, significance) (Carcinogen: BENZO[A]PYRENE, 50-32-8, 0.5% COMMERCIAL GRADE CURCUMIN IN DIET FOR 23 WK BEGINNING 1 WK POST CARCINOGEN TREATMENT (STUDY DURATION: 30 WK), Route [Inhibitor]: ORAL, Species: MOUSE, Strain/Sex: STRAIN-A/FEMALE, Target Tissue: Type of Lesion: FORESTOMACH: SQUAMOUS CELL CARCINOMA, Dose [Carcinogen]: 1.5 MG IN 100 µL CORN OIL 1/WK FOR 4 WK, Promoter: NONE USED): 41%, 30%, 27%, not significant
tumour outcome (control, treated, inhibition, significance) (Carcinogen: BENZO[A]PYRENE, 50-32-8, 2% COMMERCIAL GRADE CURCUMIN IN DIET FOR 7 WK BEGINNING 2 WK PRIOR TO CARCINOGEN TREATMENT (STUDY DURATION: 30 WK), Route [Inhibitor]: ORAL, Species: MOUSE, Strain/Sex: STRAIN-A/FEMALE, Target Tissue: Type of Lesion: FORESTOMACH: PAPILLOMA, Dose [Carcinogen]: 1.5 MG IN 100 µL CORN OIL 1/WK FOR 4 WK, Promoter: NONE USED): 97%, 83%, 14%, not significant
tumour outcome (control, treated, inhibition, significance) (Carcinogen: BENZO[A]PYRENE, 50-32-8, 2% COMMERCIAL GRADE CURCUMIN IN DIET FOR 7 WK BEGINNING 2 WK PRIOR TO CARCINOGEN TREATMENT (STUDY DURATION: 30 WK), Route [Inhibitor]: ORAL, Species: MOUSE, Strain/Sex: STRAIN-A/FEMALE, Target Tissue: Type of Lesion: FORESTOMACH: SQUAMOUS CELL CARCINOMA, Dose [Carcinogen]: 1.5 MG IN 100 µL CORN OIL 1/WK FOR 4 WK, Promoter: NONE USED): 41%, 10%, 76%, not significant
tumour outcome (control, treated, inhibition, significance) (Carcinogen: BENZO[A]PYRENE, 50-32-8, 2% COMMERCIAL GRADE CURCUMIN IN DIET FOR 23 WK BEGINNING 1 WK POST CARCINOGEN TREATMENT (STUDY DURATION: 30 WK), Route [Inhibitor]: ORAL, Species: MOUSE, Strain/Sex: STRAIN-A/FEMALE, Target Tissue: Type of Lesion: FORESTOMACH: PAPILLOMA, Dose [Carcinogen]: 1.5 MG IN 100 µL CORN OIL 1/WK FOR 4 WK, Promoter: NONE USED): 97%, 79%, 19%, not significant
tumour outcome (control, treated, inhibition, significance) (Carcinogen: BENZO[A]PYRENE, 50-32-8, 2% COMMERCIAL GRADE CURCUMIN IN DIET FOR 23 WK BEGINNING 1 WK POST CARCINOGEN TREATMENT (STUDY DURATION: 30 WK), Route [Inhibitor]: ORAL, Species: MOUSE, Strain/Sex: STRAIN-A/FEMALE, Target Tissue: Type of Lesion: FORESTOMACH: SQUAMOUS CELL CARCINOMA, Dose [Carcinogen]: 1.5 MG IN 100 µL CORN OIL 1/WK FOR 4 WK, Promoter: NONE USED): 41%, 14%, 66%, not significant
tumour outcome (control, treated, inhibition, significance) (Carcinogen: BENZO[A]PYRENE, 50-32-8, 3 UMOL IN ACETONE 1/WK FOR 10 WK APPLIED 5 MIN PRIOR TO EACH CARCINOGEN DOSE (STUDY DURATION: 32 WK), Route [Inhibitor]: DERMAL, Species: MOUSE, Strain/Sex: CD-1/FEMALE, Target Tissue: Type of Lesion: SKIN: TUMORS, Dose [Carcinogen]: 20 NMOL 1/WK FOR 10 WK, Promoter: 12-O-TETRADECANOYLPHORBOL-13-ACETATE, 16561-29-8): 100%, 75%, 25%, not calculated
tumour outcome (control, treated, inhibition, significance) (Carcinogen: BENZO[A]PYRENE, 50-32-8, 5% IN DIET FOR 8 WK BEGINNING 2 WK PRIOR TO CARCINOGEN TREATMENT (STUDY DURATION: 20 WK), Route [Inhibitor]: ORAL, Species: MOUSE, Strain/Sex: SWISS/FEMALE, Target Tissue: Type of Lesion: FORESTOMACH: TUMOR, Dose [Carcinogen]: 1 MG IN 0.1 ML PEANUT OIL 2/WK FOR 4 WK, Promoter: NONE USED): 20/20 (100%), 12/20 (60%), 40%, p<0.001
tumour outcome (control, treated, inhibition, significance) (Carcinogen: BENZO[A]PYRENE, 50-32-8, 10 UMOL IN ACETONE 1/WK FOR 10 WK APPLIED 5 MIN PRIOR TO EACH CARCINOGEN DOSE (STUDY DURATION: 32 WK), Route [Inhibitor]: DERMAL, Species: MOUSE, Strain/Sex: CD-1/FEMALE, Target Tissue: Type of Lesion: SKIN: TUMORS, Dose [Carcinogen]: 20 NMOL 1/WK FOR 10 WK, Promoter: 12-O-TETRADECANOYLPHORBOL-13-ACETATE, 16561-29-8): 100%, 82%, 18%, not calculated
